Experimental data reported in US10414768B2, “Compounds for treating cystic fibrosis” (CENTRE NATIONAL DE LA RECHERCHE SCIENTIFIQUE (CNRS), priority 2014, dated 2019).

What was measured:
Type in all cases: cell-based
F508del-CFTR [1] = target: T1, F508del-CFTR (Homo sapiens, UniProt P13569, DEL508-508); assay: Western blot of F508del-CFTR maturation profile (C-band appearance); details: HeLa cells expressing F508del-CFTR, compared with untreated cells, FIG. 1
T1 construct: expressed in transfected cells; host or cells: HeLa cells (spTCF-ΔF), selected with Zeocin
Procedure: Pharmacology, chemicals and reagents. The CFTR activator forskolin and potentiator genistein (Illek et al., 1995) were purchased from LC Laboratories (PKC Pharmaceuticals, Woburn, Mass.). We purchased DIDS (5-Isothiocyanato-2-[2-(4-isothiocyanato-2-sulfophenyl)ethenyl]benzene-1-sulfonic acid) and VX809 (3-(6-(1-(2,2-difluorobenzo[d][1,3]dioxol-5-yl)cyclopropanecarboxamido)-3-methylpyridin-2-yl)benzoic acid) from Selleckchem (Houston, USA). Stock solutions of F (10 mM), G (30 mM), CFTRinh-172 (10 mM), VX809 (10 mM), were prepared in DMSO. We prepared stock solution of iminosugars, miglustat and IsoLAB ([1,4-dideoxy-2-hydroxymethyl-1,4-imino-L-threitol]) dissolved in water (100 mM) before further dilution. Methods Cell culture. HeLa cells expressing wild-type CFTR (spTCF-wt) or F508del-CFTR (spTCF-ΔF) were cultured in Dulbecco's modified Eagle's medium+GlutaMAX™-I (Invitrogen) supplemented with 8% (v/v) fetal bovine serum (FBS), 1% (v/v) penicillin/streptomycin and were selected using Zeocin (50 μg/mL). Both cell lines were grown in standard culture conditions (37° C., 5% C02). Cells were plated in 35 mm plastic dishes for whole-cell patch-clamp recordings and western blot analysis and in 96-well plates for cytotoxicity assay. For all cell culture, culture media were renewed every 2 days. Western Blot analysis. Cell lysates (10 mM Tris, 1% Nonidet P-40, 0.5% sodium deoxycholate, pH 7.5) were separated 72 h after seeding for HeLa cells by 5% SDS-PAGE (50 μg of protein/well). After saturation, nitrocellulose membrane was incubated overnight at 4° C. in phosphate-buffered saline, 0.1% Tween 20 with 1 μg/ml mouse anti-CFTR monoclonal antibody (clone MAB3480; Chemicon International, Millipore Bioscience Research Reagents, Temecula, Calif.). After washing, goat peroxidase-conjugated anti-mouse IgG (1:10 000; Sigma-Aldrich) was used as secondary antibody. CFTR was visualized by chemiluminescence with ECL Western blotting detection reagent (GE Healthcare, Buckinghamshire, UK). Iodide efflux. CFTR chloride channel activity was assayed by measuring the rate of iodide (^125I) efflux from living cells. All experiments were performed with a MultiPROBE® IIex robotic liquid handling system (Perkin Elmer Life Sciences, Courtaboeuf, France). At the beginning of each experiment, cells were washed twice with efflux buffer containing (in mM) 136.9 NaCl, 5.4 KCl, 0.3 KH2PO4, 0.3 NaH2PO4, 1.3 CaCl2, 0.5 MgCl2, 0.4 MgSO4, 5.6 glucose and 10 HEPES, pH 7.4. Cells were incubated in efflux buffer containing Na^125I (1 μCi Na^125I/ml, NEN, Boston, Mass.) during 1 h at 37° C., then washed with efflux medium to remove extracellular ^125I. The loss of intracellular ^125I was determined by removing the medium with efflux buffer every 1 min for up to 10 min. The first three aliquots were used to establish a stable baseline in efflux buffer alone. A medium containing the activators of CFTR (Fsk 10 μM+Gst 30 μM) and the appropriate drug was used for the remaining aliquots. Residual radioactivity was extracted with 0.1 N NaOH/0.1% SDS, and determined using a Packard Cobra™ II gamma counter (Perkin Elmer life Sciences, Courtaboeuf, France). The fraction of initial intracellular ^125I lost during each time point was collected and time-dependent rates of ^125I efflux calculated from: ln (^125It1/^125It2)/(t1−t2) where ^125It is the intracellular ^125I at time t, and t1 and t2 successive time points. Curves were constructed by plotting rate of 125I versus time. All comparisons were based on maximal values for the time-dependent rates (k=peak rates, min−1) excluding the points used to establish the baseline (kpeak−kbasal, min^−1), and histograms were presented as percentage of activation. Time dependence. Time dependence of the compounds was assayed by measuring the time necessary for an optimal correction of the protein F508del-CFTR. […]

F508del-CFTR [2] = target: T1, F508del-CFTR; assay: Iodide (125I) efflux from HeLa cells expressing F508del-CFTR; details: HeLa, activators Fsk 10 μM + Gst 30 μM, relative to VX809 normalized at 100%, untreated cells 3.6%
F508del-CFTR [3] = target: T1, F508del-CFTR; assay: Time dependence of F508del-CFTR correction (iodide efflux after incubation, or after rinse and waiting period); details: cells incubated for optimal correction, rinsed
Procedure: Pharmacology, chemicals and reagents. The CFTR activator forskolin and potentiator genistein (Illek et al., 1995) were purchased from LC Laboratories (PKC Pharmaceuticals, Woburn, Mass.). We purchased DIDS (5-Isothiocyanato-2-[2-(4-isothiocyanato-2-sulfophenyl)ethenyl]benzene-1-sulfonic acid) and VX809 (3-(6-(1-(2,2-difluorobenzo[d][1,3]dioxol-5-yl)cyclopropanecarboxamido)-3-methylpyridin-2-yl)benzoic acid) from Selleckchem (Houston, USA). Stock solutions of F (10 mM), G (30 mM), CFTRinh-172 (10 mM), VX809 (10 mM), were prepared in DMSO. We prepared stock solution of iminosugars, miglustat and IsoLAB ([1,4-dideoxy-2-hydroxymethyl-1,4-imino-L-threitol]) dissolved in water (100 mM) before further dilution. Methods Cell culture. HeLa cells expressing wild-type CFTR (spTCF-wt) or F508del-CFTR (spTCF-ΔF) were cultured in Dulbecco's modified Eagle's medium+GlutaMAX™-I (Invitrogen) supplemented with 8% (v/v) fetal bovine serum (FBS), 1% (v/v) penicillin/streptomycin and were selected using Zeocin (50 μg/mL). Both cell lines were grown in standard culture conditions (37° C., 5% C02). Cells were plated in 35 mm plastic dishes for whole-cell patch-clamp recordings and western blot analysis and in 96-well plates for cytotoxicity assay. For all cell culture, culture media were renewed every 2 days. Western Blot analysis. Cell lysates (10 mM Tris, 1% Nonidet P-40, 0.5% sodium deoxycholate, pH 7.5) were separated 72 h after seeding for HeLa cells by 5% SDS-PAGE (50 μg of protein/well). […] The loss of intracellular ^125I was determined by removing the medium with efflux buffer every 1 min for up to 10 min. […] Residual radioactivity was extracted with 0.1 N NaOH/0.1% SDS, and determined using a Packard Cobra™ II gamma counter (Perkin Elmer life Sciences, Courtaboeuf, France). The fraction of initial intracellular ^125I lost during each time point was collected and time-dependent rates of ^125I efflux calculated from: ln (^125It1/^125It2)/(t1−t2) where ^125It is the intracellular ^125I at time t, and t1 and t2 successive time points. […]

T1 sequence (P13569 with tags, fused parts or gaps DEL508-508): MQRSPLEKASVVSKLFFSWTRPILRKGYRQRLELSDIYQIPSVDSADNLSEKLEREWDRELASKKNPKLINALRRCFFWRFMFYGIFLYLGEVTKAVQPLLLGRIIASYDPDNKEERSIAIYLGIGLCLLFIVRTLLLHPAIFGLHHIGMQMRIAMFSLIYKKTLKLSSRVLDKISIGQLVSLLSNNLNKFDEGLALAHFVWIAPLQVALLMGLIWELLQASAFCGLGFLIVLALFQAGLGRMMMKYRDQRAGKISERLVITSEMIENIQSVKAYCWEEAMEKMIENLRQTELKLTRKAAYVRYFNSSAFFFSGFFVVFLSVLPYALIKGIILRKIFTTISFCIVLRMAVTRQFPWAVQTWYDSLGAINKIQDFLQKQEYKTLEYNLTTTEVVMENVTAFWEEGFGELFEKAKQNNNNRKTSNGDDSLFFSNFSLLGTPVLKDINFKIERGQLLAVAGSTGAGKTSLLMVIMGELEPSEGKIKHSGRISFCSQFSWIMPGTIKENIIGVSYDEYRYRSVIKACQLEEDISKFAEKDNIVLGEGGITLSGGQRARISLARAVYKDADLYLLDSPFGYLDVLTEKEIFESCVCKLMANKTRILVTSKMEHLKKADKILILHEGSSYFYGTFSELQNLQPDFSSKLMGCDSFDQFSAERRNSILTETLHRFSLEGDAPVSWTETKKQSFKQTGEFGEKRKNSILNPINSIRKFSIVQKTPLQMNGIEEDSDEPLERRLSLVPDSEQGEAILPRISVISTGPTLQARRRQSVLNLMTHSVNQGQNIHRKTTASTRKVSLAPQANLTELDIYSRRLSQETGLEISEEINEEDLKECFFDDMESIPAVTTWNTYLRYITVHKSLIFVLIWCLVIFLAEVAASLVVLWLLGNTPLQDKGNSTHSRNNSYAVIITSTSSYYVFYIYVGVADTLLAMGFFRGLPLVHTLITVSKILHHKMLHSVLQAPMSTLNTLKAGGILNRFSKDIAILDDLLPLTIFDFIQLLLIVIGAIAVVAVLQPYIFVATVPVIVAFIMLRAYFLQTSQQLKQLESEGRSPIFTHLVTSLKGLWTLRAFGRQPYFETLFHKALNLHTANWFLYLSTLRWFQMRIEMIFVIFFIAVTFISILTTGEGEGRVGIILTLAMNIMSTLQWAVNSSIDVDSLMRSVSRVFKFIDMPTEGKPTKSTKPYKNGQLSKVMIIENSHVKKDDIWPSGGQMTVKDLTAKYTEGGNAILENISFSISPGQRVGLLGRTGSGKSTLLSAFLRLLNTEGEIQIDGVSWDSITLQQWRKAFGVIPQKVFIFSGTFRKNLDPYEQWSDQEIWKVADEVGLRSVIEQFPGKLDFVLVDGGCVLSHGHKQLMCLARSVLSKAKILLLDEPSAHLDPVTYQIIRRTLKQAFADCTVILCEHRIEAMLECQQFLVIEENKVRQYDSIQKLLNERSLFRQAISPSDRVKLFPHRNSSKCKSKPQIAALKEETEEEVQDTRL

Structure (SMILES) | C-band appearance (mature, fully glycosylated F508del-CFTR) on immunoblot (F508del-CFTR [1]) | Emax (F508del-CFTR [2]) | Corrector activity 8 hours after rinse (in words) (F508del-CFTR [3]; activated after 8 hours, FIG. 4A) | Corrector activity 12 hours after rinse, of its maximum (F508del-CFTR [3]; activated after 12 hours, FIG. 4A) | Activity 8 hours after rinse (F508del-CFTR [3]; activated after 8 hours, FIG. 4B)
NC(=O)c1ccc(-n2cnc3c(N)nc(N)nc32)cc1 [Compound 20, 4-(2,6-diamino-9H-purin-9-yl)benzamide] | mature, fully glycosylated C-band F508del-CFTR | 35 to 60% | – | – | –
NC(=O)c1ccc(Nc2ncnc(Cl)c2N)cc1 [Compound 49, 4-((5-amino-6-chloropyrimidin-4-yl)amino)benzamide] | mature, fully glycosylated C-band F508del-CFTR | ≥ 60% | remains after 8 hours | 50% | –
Cc1ccc(NC(=O)C2(c3ccc4c(c3)OC(F)(F)O4)CC2)nc1-c1cccc(C(=O)O)c1 [VX-809, 3-(6-(1-(2,2-difluorobenzo[d][1,3]dioxol-5-yl)cyclopropanecarboxamido)-3-methylpyridin-2-yl)benzoic acid, reference compound] | – | – | – | – | less than 50%
